Measured values: PMC8286599 (Gut Pathogens, 2021)
Read-outs that look alike come from different tables or passages of the source.

Tests used:
[1] = system: MDR-S. Typhimurium strains; experiment: Stability assay, pH (MIC)
Text: (§4) To explore the utility of phytochemicals as therapeutic molecules and their stability, individual phytochemicals were exposed to cationic salts, and different pH levels followed by analysing their MIC and MBC values against test strains as described earlier.
(§5) Subsequent to exposure to varied conditions, the antimicrobial activity of the phytochemicals was estimated by determining their MIC and MBC values against all the selected MDR strains of EAEC, S. Enteritidis, and S. Typhimurium as described earlier.

[2] = system: MDR-S. Enteritidis strains; experiment: Stability assay, cationic salts (MIC)
Text: as §4, §5

MDR-EAEC strains [3] = experiment: MIC and MBC by broth microdilution with resazurin; format: cell-based, enteroaggregative Escherichia coli; settings: infant diarrhoea isolate
Text: (§1) The characterised MDR field strains of EAEC (E1; E2; E3), S. Enteritidis (S1; S2; S3), and S. Typhimurium (ST1; ST2; ST3) maintained in the laboratory repository of Meat Safety Laboratory of ICAR-National Research Centre on Meat, Hyderabad re-validated using PCR assays were used to evaluate the in vitro antibacterial efficacy of phytochemicals. E. coli ATCC 25922 was used as the quality control strain.
(§2) The antimicrobial efficacy of identified phytochemicals against multi-drug resistant EAEC and NTS strains was determined by estimating the minimum inhibitory concentration (MIC) and minimum bactericidal concentrations (MBC).
(§3) Subsequent to the incubation period, resazurin dye (0.015 %) was added to all the wells to determine the dye reduction (pink) and thereby the bacterial inhibition.

[4] = system: MDR-S. Typhimurium strains; experiment: MIC and MBC by broth microdilution with resazurin; format: cell-based, Salmonella Typhimurium; settings: poultry droppings isolate
Text: as §1, §2, §3

MDR-EAEC strains [5] = experiment: Stability assay, cationic salts (MIC)
Text: as §4, §5

[6] = system: MDR-S. Typhimurium strains; experiment: Stability assay, cationic salts (MIC)
Text: as §4, §5

Haemolytic assay = format: cell-based; settings: read-out: Haemolysis; for hemolysis at 0.5 X MIC: 0.50X MIC
Experimental: The haemolytic assay of the individual phytochemical was performed by measuring the release of haemoglobin from sheep and human ‘O’ erythrocytes at 540 nm. The percentage of haemolysis was calculated as (Asample – APBS)/ (ATriton−X – APBS) ×100, in which Asample is the absorbance of phytochemical treatment, APBS is the absorbance of untreated control with PBS, and ATriton−X is the absorbance of lysed cells treated with Triton X-100 measured at 540 nm.

MDR-EAEC strains [7] = experiment: Stability assay, pH (MIC)
Text: as §4, §5

[8] = system: MDR-S. Enteritidis strains; experiment: MIC and MBC by broth microdilution with resazurin; format: cell-based, Salmonella Enteritidis; settings: poultry droppings isolate
Text: as §1, §2, §3

[9] = system: MDR-S. Enteritidis strains; experiment: Stability assay, pH (MIC)
Text: as §4, §5

[10] = human 'O' erythrocytes, Human RBCs

O=C/C=C/c1ccccc1 [Cinnamaldehyde, cinnamaldehyde]
0.109%: hemolysis at 0.25 X MIC (Haemolytic assay; sheep erythrocytes, Sheep RBCs)
5%: hemolysis at 2 X MIC (Haemolytic assay; [10])
0.554%: hemolysis at 0.25 X MIC (Haemolytic assay; [10])
19.1%: hemolysis at 8 X MIC (Haemolytic assay; [10])
11.7%: hemolysis at 2 X MIC (Haemolytic assay; sheep erythrocytes, Sheep RBCs)
remained almost similar: Change of MIC values with cationic salts (MDR-EAEC strains [5]; 150 mM NaCl and 2 mM MgCl2, MDR-EAEC strains)
12.5%: hemolysis at 4 X MIC (Haemolytic assay; sheep erythrocytes, Sheep RBCs)
22%: hemolysis at 8 X MIC (Haemolytic assay; sheep erythrocytes, Sheep RBCs)
0.5 µl/ml: MIC at given pH ([1]; pH 4, strain ST1) | MIC at given pH ([1]; pH 6, strain ST1) | MIC at given pH ([1]; pH 8, strain ST1) | MIC with cationic salt ([2]; 2 mM MgCl2, strain S1) | MIC with cationic salt ([2]; 2 mM MgCl2, strain S2) | MIC with cationic salt ([2]; 2 mM MgCl2, strain S3) | MIC with cationic salt ([2]; 150 mM NaCl, strain S1) | MIC with cationic salt ([2]; 150 mM NaCl, strain S2) | MIC with cationic salt ([2]; 150 mM NaCl, strain S3) | MIC with cationic salt (MDR-EAEC strains [5]; 2 mM MgCl2, strain E1) | MIC with cationic salt (MDR-EAEC strains [5]; 2 mM MgCl2, strain E2) | MIC with cationic salt (MDR-EAEC strains [5]; 2 mM MgCl2, strain E3) | MIC with cationic salt (MDR-EAEC strains [5]; 150 mM NaCl, strain E1) | MIC with cationic salt (MDR-EAEC strains [5]; 150 mM NaCl, strain E2) | MIC with cationic salt (MDR-EAEC strains [5]; 150 mM NaCl, strain E3) | MIC with cationic salt ([6]; 2 mM MgCl2, strain ST1) | MIC with cationic salt ([6]; 2 mM MgCl2, strain ST2) | MIC with cationic salt ([6]; 150 mM NaCl, strain ST1) | MIC with cationic salt ([6]; 150 mM NaCl, strain ST2) | MIC at given pH (MDR-EAEC strains [7]; pH 4, strain E1) | MIC at given pH (MDR-EAEC strains [7]; pH 4, strain E2) | MIC at given pH (MDR-EAEC strains [7]; pH 4, strain E3) | MIC at given pH (MDR-EAEC strains [7]; pH 6, strain E1) | MIC at given pH (MDR-EAEC strains [7]; pH 6, strain E2) | MIC at given pH (MDR-EAEC strains [7]; pH 6, strain E3) | MIC at given pH (MDR-EAEC strains [7]; pH 8, strain E1) | MIC at given pH (MDR-EAEC strains [7]; pH 8, strain E2) | MIC at given pH (MDR-EAEC strains [7]; pH 8, strain E3) | MIC at given pH ([9]; pH 4, strain S1) | MIC at given pH ([9]; pH 4, strain S2) | MIC at given pH ([9]; pH 4, strain S3) | MIC at given pH ([9]; pH 6, strain S1) | MIC at given pH ([9]; pH 6, strain S2) | MIC at given pH ([9]; pH 6, strain S3) | MIC at given pH ([9]; pH 8, strain S1) | MIC at given pH ([9]; pH 8, strain S2)
0.25 µl/ml: MIC (MDR-EAEC strains [3]; EAEC (E3)) | MIC ([4]; S. Typhimurium (ST1)) | MIC ([4]; S. Typhimurium (ST2))
2.03%: hemolysis at 1 X MIC (Haemolytic assay; [10])
0.50 µl/ml: MBC (MDR-EAEC strains [3]; EAEC (E1)) | MIC (MDR-EAEC strains [3]; EAEC (E1)) | MIC (MDR-EAEC strains [3]; EAEC (E2)) | MBC (MDR-EAEC strains [3]; EAEC (E3)) | MBC ([4]; S. Typhimurium (ST1)) | MBC ([4]; S. Typhimurium (ST2)) | MBC ([8]; S. Enteritidis (S1)) | MBC ([8]; S. Enteritidis (S2)) | MBC ([8]; S. Enteritidis (S3))
3.61%: hemolysis at 1 X MIC (Haemolytic assay; sheep erythrocytes, Sheep RBCs)
12.8%: hemolysis at 4 X MIC (Haemolytic assay; [10])
0.12 µl/ml: MIC ([4]; S. Typhimurium (ST3)) | MIC ([8]; S. Enteritidis (S1)) | MIC ([8]; S. Enteritidis (S2)) | MIC ([8]; S. Enteritidis (S3))
0.274%: hemolysis at 0.5 X MIC (Haemolytic assay; sheep erythrocytes, Sheep RBCs)
1.0 µl/ml: MIC at given pH ([1]; pH 4, strain ST2) | MIC at given pH ([1]; pH 4, strain ST3) | MIC at given pH ([1]; pH 6, strain ST2) | MIC at given pH ([1]; pH 6, strain ST3) | MIC at given pH ([1]; pH 8, strain ST2) | MIC at given pH ([1]; pH 8, strain ST3) | MBC (MDR-EAEC strains [3]; EAEC (E2)) | MBC ([4]; S. Typhimurium (ST3)) | MIC with cationic salt ([6]; 2 mM MgCl2, strain ST3) | MIC with cationic salt ([6]; 150 mM NaCl, strain ST3) | MIC at given pH ([9]; pH 8, strain S3)
0.696%: hemolysis at 0.5 X MIC (Haemolytic assay; [10])
